System: htel, d[AG3(TTAG3)3]; htel(K) (hybrid in K+); htel(Na) (antiparallel in Na+) (DNA, G4) AGGGTTAGGGTTAGGGTTAGGG
Assay: visible absorption titration, 380 nm, Bard fit
Conditions: pH 7, 298 K, per G-tetrad

## N#Cc1cc2nc3c4cccnc4c4ncccc4c3nc2cc1C#N.[Ru+2].c1cnc2c(c1)ccc1cccnc12.c1cnc2c(c1)ccc1cccnc12
K+ (100 mM KCl), 50 mM phosphate, hybrid htel(K), site size 1.8, 7.2 μM complex
  Kb: 1.1(±0.6) × 10^7 M^-1
K+ (100 mM KCl), phosphate buffer, hybrid htel(K), site size 1.5
  Kb: 4.2(±0.5) × 10^5 M^-1
Na+ (sodium phosphate; 100 mM NaCl in TRIR samples), phosphate buffer, antiparallel htel(Na), site size 1.1
  Kb: 1.9(±0.7) × 10^5 M^-1
Na+ (sodium phosphate; 100 mM NaCl in TRIR samples), phosphate buffer, antiparallel htel(Na), site size 1.5
  Kb: 2.2(±0.3) × 10^6 M^-1
